Tests used:
Assay in all cases: Halosulfuron-methyl tolerance of soybean plants (damage degree)
Format in all cases: in vivo
[1] = test system: Gm chloroplastic ALT-2-01 soybean plants; conditions: 34 g ai/ha (1x Hal.); for Average damage % 3 DAT: 3 days after spraying; for Average damage % 7 DAT: 7 days after spraying; for Average damage % 14 DAT: 14 days after spraying; for Average damage % 21 DAT: 21 days after spraying
Source text: (§1) The herbicide tolerance effects of Gm cytoplasmic ALT-1-01 soybean plants, Gm chloroplastic ALT-1-01 soybean plants, Gm cytoplasmic ALT-2-01 soybean plants, Gm chloroplastic ALT-2-01 soybean plants, Gm cytoplasmic ALT-3-01 soybean plants, Gm chloroplastic ALT-3-01 soybean plants and wild-type soybean plants on halosulfuron-methyl were detected (at seedling stage), respectively.
(§2) Gm cytoplasmic ALT-1-01 soybean plants, Gm chloroplastic ALT-1-01 soybean plants, Gm cytoplasmic ALT-2-01 soybean plants, Gm chloroplastic ALT-2-01 soybean plants, Gm cytoplasmic ALT-3-01 soybean plants, Gm chloroplastic ALT-3-01 soybean plants and wild-type soybean plants were respectively taken and sprayed with halosulfuron-methyl (34 g ai/ha, 1-fold field concentration) and a blank solvent (water). The damage degree caused by the herbicide was measured for each plant according to the leaf curl degree and the growth point damage degree 3 days after spraying (3 DAT), 7 days after spraying (7 DAT), 14 days after spraying (14 DAT) and 21 days after spraying (21 DAT), respectively: considering conditions of leaves being flat as the untreated plants and growth points being intact as having a damage degree of 0%; considering conditions of veins being locally browned, new leaves being malformed and plant growth being slow as having a damage degree of 50%; and considering conditions of veins being purple to whole plant being dead and growth points being browned and dry as having a damage degree of 100%. There were 2 strains in Gm cytoplasmic ALT-1-01 soybean plants in total (S1 and S2), 2 strains in Gm chloroplastic ALT-1-01 soybean plants in total (S3 and S4), 2 strains in Gm cytoplasmic ALT-2-01 soybean plants in total (S5 and S6), 2 strains in Gm chloroplastic ALT-2-01 soybean plants in total (S7 and S8), 2 strains in Gm cytoplasmic ALT-3-01 soybean plants in total (S9 and S10), 2 strains in Gm chloroplastic ALT-3-01 soybean plants in total (S11 and S12), and 1 strain in wild-type soybean plants (CK1) in total; and 10-15 plants were selected from each strain and tested.

[2] = test system: Gm cytoplasmic ALT-3-01 soybean plants; conditions: 34 g ai/ha (1-fold field concentration); for Average damage % 3 DAT: 3 days after spraying; for Average damage % 7 DAT: 7 days after spraying; for Average damage % 14 DAT: 14 days after spraying; for Average damage % 21 DAT: 21 days after spraying
Source text: as §1, §2

[3] = test system: Gm cytoplasmic ALT-2-01 soybean plants; conditions: 34 g ai/ha (1x Hal.); for Average damage % 3 DAT: 3 days after spraying; for Average damage % 7 DAT: 7 days after spraying; for Average damage % 14 DAT: 14 days after spraying; for Average damage % 21 DAT: 21 days after spraying
Source text: as §1, §2

[4] = test system: Gm cytoplasmic ALT-1-01 soybean plants; conditions: 34 g ai/ha (1x Hal.); for Average damage % 3 DAT: 3 days after spraying; for Average damage % 7 DAT: 7 days after spraying; for Average damage % 14 DAT: 14 days after spraying; for Average damage % 21 DAT: 21 days after spraying
Source text: as §1, §2

[5] = test system: Gm chloroplastic ALT-1-01 soybean plants; conditions: 34 g ai/ha (1x Hal.); for Average damage % 3 DAT: 3 days after spraying; for Average damage % 7 DAT: 7 days after spraying; for Average damage % 14 DAT: 14 days after spraying; for Average damage % 21 DAT: 21 days after spraying
Source text: as §1, §2

COC(=O)c1c(Cl)nn(C)c1S(=O)(=O)NC(=O)Nc1nc(OC)cc(OC)n1 [halosulfuron-methyl, 3-chlorine-5-(4,6-dimethoxypyrimidine-2-aminocarbonylaminosulphonyl)-1-methylpyrazole-4-carboxylic acid methyl ester]
Average damage % 3 DAT ([1]; strain S7): 10%
Average damage % 7 DAT ([1]; strain S7): 4%
Average damage % 14 DAT ([1]; strain S7): 0%
Average damage % 21 DAT ([1]; strain S7): 0%
Average damage % 3 DAT ([1]; strain S8): 9%
Average damage % 7 DAT ([1]; strain S8): 5%
Average damage % 14 DAT ([1]; strain S8): 0%
Average damage % 21 DAT ([1]; strain S8): 0%
Average damage % 3 DAT ([2]; strain S9): 13%
Average damage % 7 DAT ([2]; strain S9): 6%
Average damage % 14 DAT ([2]; strain S9): 0%
Average damage % 21 DAT ([2]; strain S9): 0%
Average damage % 3 DAT ([2]; strain S10): 12%
Average damage % 7 DAT ([2]; strain S10): 5%
Average damage % 14 DAT ([2]; strain S10): 0%
Average damage % 21 DAT ([2]; strain S10): 0%
Average damage % 3 DAT ([3]; strain S5): 14%
Average damage % 7 DAT ([3]; strain S5): 6%
Average damage % 14 DAT ([3]; strain S5): 0%
Average damage % 21 DAT ([3]; strain S5): 0%
Average damage % 3 DAT ([3]; strain S6): 12%
Average damage % 7 DAT ([3]; strain S6): 6%
Average damage % 14 DAT ([3]; strain S6): 0%
Average damage % 21 DAT ([3]; strain S6): 0%
Average damage % 3 DAT ([4]; strain S1): 13%
Average damage % 7 DAT ([4]; strain S1): 7%
Average damage % 14 DAT ([4]; strain S1): 0%
Average damage % 21 DAT ([4]; strain S1): 0%
Average damage % 3 DAT ([4]; strain S2): 12%
Average damage % 7 DAT ([4]; strain S2): 6%
Average damage % 14 DAT ([4]; strain S2): 0%
Average damage % 21 DAT ([4]; strain S2): 0%
Average damage % 3 DAT ([5]; strain S3): 10%
Average damage % 7 DAT ([5]; strain S3): 5%
Average damage % 14 DAT ([5]; strain S3): 0%
Average damage % 21 DAT ([5]; strain S3): 0%
Average damage % 3 DAT ([5]; strain S4): 11%
Average damage % 7 DAT ([5]; strain S4): 5%
Average damage % 14 DAT ([5]; strain S4): 0%
Average damage % 21 DAT ([5]; strain S4): 0%

Reference: patent US20190029257A1, “APPLICATION FOR HERBICIDE-TOLERANT PROTEIN” (BEIJING DABEINONG TECHNOLOGY GROUP CO., LTD., priority 2016, published 2019)
